Key:
[1] = molecular target: T1, PLA2G16 (Homo sapiens, UniProt P53816); assay: Enzyme activity assay for PLA2G16 (Red/Green BODIPY PC-A2 fluorescence); assay type: biochemical; details: His-tagged PLA2G16, 4 min pre-incubation, compound 2 nM to 50 μM; first symbol in parentheses
T1 construct: Hexa-His (N); made in house; host or cells: E. coli BL21(DE3)
T1 sequence (P53816 1-162): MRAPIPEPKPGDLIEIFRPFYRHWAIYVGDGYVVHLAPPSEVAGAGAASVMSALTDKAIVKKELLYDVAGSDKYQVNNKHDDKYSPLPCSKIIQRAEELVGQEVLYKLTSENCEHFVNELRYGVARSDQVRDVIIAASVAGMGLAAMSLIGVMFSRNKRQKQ
In short: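 N-His human PLA2G16 was expressed in E. coli and Ni-NTA purified. Enzyme in 5 mM glutathione was preincubated 4 min with compound (2 nM–50 μM final), then Red/Green BODIPY PC-A2 in DOPC/DOPG/cholesterol vesicles was added (50 mM Tris pH 8.5, 100 mM NaCl). Fluorescence increase (ex 480/em 530 nm) over 10 min gave activity; IC50 came from nonlinear regression.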

[2] = test system: picornaviruses (CVB1, HRV-A2, HRV-A23, EV-68); assay: Anti-picornavirus cytopathic effect (CPE) reduction assay on HeLa H1 cells; assay type: cell-based; details: 48 h, category from averaging EC50 values of four picornaviruses (CVB1, HRV-A2, HRV-A23, EV68), second symbol in parentheses
In short: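 HeLa H1 cells pre-treated 2 h with serial compound dilutions in 2% FBS DMEM, then infected at an MOI giving full CPE in 2 days; after 48 h, viability by CellTiterBlue fluorescence (560/590 nm) normalised to infected and uninfected vehicle controls; EC50 by non-linear regression, averaged over the four viruses.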

| IC50 [1] [nM] | EC50 [2] [nM] | SMILES |
| --- | --- | --- |
| < 1000 | < 1000 | O=C(NCC1CCC1)C(=O)[C@H]1CNC(=O)[C@@H]1c1ccccc1 (racemic) [FP-21, Rac-N-(cyclobutylmethyl)-2-oxo-2-[(3R,4S)-5-oxo-4-phenylpyrrolidin-3-yl]acetamide] |
| < 1000 | < 1000 | CC(F)(F)CNC(=O)C(=O)[C@H]1CN(c2cncnc2)C(=O)[C@@H]1Cc1ccccc1 (single isomer, unassigned) [FP-95] |
| < 1000 | 1000 to 10000 | Cc1cc(CN2C[C@H](C(=O)C(=O)NC3CC3)[C@@H](Cc3ccccc3)C2=O)on1 (racemic) [FP-46, Rac-2-[(3R,4R)-4-benzyl-1-[(3-methyl-1,2-oxazol-5-yl)methyl]-5-oxopyrrolidin-3-yl]-N-cyclopropyl-2-oxoacetamide] |
| 1000 to 10000 | > 10000 | O=C(NCC(F)F)C(=O)[C@@H]1CNC(=O)[C@H]1Cc1ccccc1 (single isomer, unassigned) [FP-84] |
| < 1000 | 1000 to 10000 | O=C(NC1CC1)C(=O)[C@H]1CNC(=O)[C@@H]1c1ccccc1 (racemic) [FP-14, Rac-N-cyclopropyl-2-oxo-2-[(3R,4S)-5-oxo-4-phenylpyrrolidin-3-yl]acetamide] |
| < 1000 | < 1000 | CCNC(=O)C(=O)[C@H]1CNC(=O)[C@@H]1Cc1ccccc1 (racemic) [FP-3, Rac-2-[(3R,4R)-4-benzyl-5-oxopyrrolidin-3-yl]-N-ethyl-2-oxoacetamide] |
| < 1000 | > 10000 | O=C(NCC1CC1)C(=O)[C@@H]1CNC(=O)[C@H]1c1ccccc1 (single isomer, unassigned) [FP-85] |
| < 1000 | 1000 to 10000 | O=C(NC1CC1)C(=O)[C@H]1CN(Cc2ccccc2)C(=O)[C@@H]1c1ccccc1 (racemic) [FP-99, Rac-2-[(3R,4S)-1-benzyl-5-oxo-4-phenylpyrrolidin-3-yl]-N-cyclopropyl-2-oxoacetamide] |

The remaining lines, values behind:

| SMILES | IC50 [1] [nM] | EC50 [2] [nM] |
| --- | --- | --- |
| Cc1noc(CN2C[C@H](C(=O)C(=O)NC3CC3)[C@@H](Cc3ccccc3)C2=O)n1 (racemic) [FP-34, Rac-2-[(3R,4R)-4-benzyl-1-[(3-methyl-1,2,4-oxadiazol-5-yl)methyl]-5-oxopyrrolidin-3-yl]-N-cyclopropyl-2-oxoacetamide] | < 1000 | 1000 to 10000 |
| N#Cc1ncncc1N1C[C@H](C(=O)C(=O)NC2CC2)[C@@H](Cc2ccccc2)C1=O (racemic) [FP-65, Rac-2-[(3R,4R)-4-benzyl-1-(4-cyanopyrimidin-5-yl)-5-oxopyrrolidin-3-yl]-N-cyclopropyl-2-oxoacetamide] | < 1000 | 1000 to 10000 |
| O=C(NCC1CC1)C(=O)[C@H]1CNC(=O)[C@@H]1c1ccccc1 (single isomer, unassigned) [FP-86] | < 1000 | < 1000 |
| O=C(NC1CCOCC1)C(=O)[C@H]1CNC(=O)[C@@H]1Cc1ccccc1 (racemic) [FP-7, Rac-2-[(3R,4R)-4-benzyl-5-oxopyrrolidin-3-yl]-N-(oxan-4-yl)-2-oxoacetamide] | < 1000 | 1000 to 10000 |
| O=C(NCC1CC1)C(=O)[C@H]1CNC(=O)[C@@H]1c1ccc(F)cc1 (racemic) [FP-28, Rac-N-(cyclopropylmethyl)-2-[(3R,4S)-4-(4-fluorophenyl)-5-oxopyrrolidin-3-yl]-2-oxoacetamide] | < 1000 | < 1000 |
| O=C(NC1CC1)C(=O)[C@H]1CN(c2cncnc2)C(=O)[C@@H]1Cc1ccccc1 (single isomer, unassigned) [FP-89] | < 1000 | < 1000 |
| O=C(NCC(F)F)C(=O)[C@H]1CNC(=O)[C@@H]1Cc1ccccc1 (single isomer, unassigned) [FP-83] | < 1000 | < 1000 |
| O=C(NC1CC1)C(=O)[C@H]1CN(CC2CCOCC2)C(=O)[C@@H]1Cc1ccccc1 (racemic) [FP-32, Rac-2-[(3R,4R)-4-benzyl-1-[(oxan-4-yl)methyl]-5-oxopyrrolidin-3-yl]-N-cyclopropyl-2-oxoacetamide] | < 1000 | < 1000 |
| O=C(NC1CC1)C(=O)[C@H]1CN(c2ncccn2)C(=O)[C@@H]1Cc1ccccc1 (racemic) [FP-58, Rac-2-[(3R,4R)-4-benzyl-5-oxo-1-(pyrimidin-2-yl)pyrrolidin-3-yl]-N-cyclopropyl-2-oxoacetamide] | < 1000 | 1000 to 10000 |
| O=C(NC1CC1)C(=O)[C@H]1CN(c2cncnc2)C(=O)[C@@H]1c1ccccc1 (racemic) [FP-63, Rac-N-cyclopropyl-2-oxo-2-[(3R,4S)-5-oxo-4-phenyl-1-(pyrimidin-5-yl)pyrrolidin-3-yl]acetamide] | < 1000 | 1000 to 10000 |
| O=C(NC1CC1)C(=O)[C@H]1CN(c2cccc(OCc3ccccc3)n2)C(=O)[C@@H]1Cc1ccccc1 (racemic) [FP-69, Rac-2-[(3R,4R)-4-benzyl-1-[6-(benzyloxy)pyridin-2-yl]-5-oxopyrrolidin-3-yl]-N-cyclopropyl-2-oxoacetamide] | < 1000 | < 1000 |

Reference: patent publication US11180479B2 (HAPLOGEN GmbH, priority 2017, dated 2021)
